According to article PMC2797226 (The Journal of Biological Chemistry, 2009):

Tests used:
Kar2p = Kar2p (Saccharomyces cerevisiae, UniProt P16474); assay: proteinase K protection, SDS-PAGE; assay type: binding; conditions: 2 mM ADP; 5 mM MgCl2; pH 7.4; room temperature
Lhs1p = molecular target: T1, Lhs1p (Saccharomyces cerevisiae, UniProt P36016); assay: biochemical
T1 sequence (P36016 21-881): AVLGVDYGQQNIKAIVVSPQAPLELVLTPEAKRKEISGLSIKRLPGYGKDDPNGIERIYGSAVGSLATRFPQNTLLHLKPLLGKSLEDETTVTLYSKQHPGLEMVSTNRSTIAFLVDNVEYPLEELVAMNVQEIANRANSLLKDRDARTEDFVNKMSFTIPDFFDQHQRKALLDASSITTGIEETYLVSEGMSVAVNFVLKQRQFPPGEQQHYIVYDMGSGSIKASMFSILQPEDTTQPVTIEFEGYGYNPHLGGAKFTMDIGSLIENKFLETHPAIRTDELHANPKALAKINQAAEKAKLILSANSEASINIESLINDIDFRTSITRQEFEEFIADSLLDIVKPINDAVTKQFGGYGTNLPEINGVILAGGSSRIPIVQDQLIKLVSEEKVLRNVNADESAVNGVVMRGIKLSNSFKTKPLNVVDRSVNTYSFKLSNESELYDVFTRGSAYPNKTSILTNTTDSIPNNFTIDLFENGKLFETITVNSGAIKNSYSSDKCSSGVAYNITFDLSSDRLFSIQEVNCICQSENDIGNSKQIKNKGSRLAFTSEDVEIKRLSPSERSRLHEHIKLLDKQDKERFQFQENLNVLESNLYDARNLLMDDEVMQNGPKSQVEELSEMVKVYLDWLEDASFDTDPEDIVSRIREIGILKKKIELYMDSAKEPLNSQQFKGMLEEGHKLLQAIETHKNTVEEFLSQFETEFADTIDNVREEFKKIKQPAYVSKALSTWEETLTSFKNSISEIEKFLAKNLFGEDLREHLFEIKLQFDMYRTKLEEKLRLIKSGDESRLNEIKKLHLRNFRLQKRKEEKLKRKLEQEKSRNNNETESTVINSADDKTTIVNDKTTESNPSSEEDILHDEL

Sequence of Kar2p (P16474 43-682): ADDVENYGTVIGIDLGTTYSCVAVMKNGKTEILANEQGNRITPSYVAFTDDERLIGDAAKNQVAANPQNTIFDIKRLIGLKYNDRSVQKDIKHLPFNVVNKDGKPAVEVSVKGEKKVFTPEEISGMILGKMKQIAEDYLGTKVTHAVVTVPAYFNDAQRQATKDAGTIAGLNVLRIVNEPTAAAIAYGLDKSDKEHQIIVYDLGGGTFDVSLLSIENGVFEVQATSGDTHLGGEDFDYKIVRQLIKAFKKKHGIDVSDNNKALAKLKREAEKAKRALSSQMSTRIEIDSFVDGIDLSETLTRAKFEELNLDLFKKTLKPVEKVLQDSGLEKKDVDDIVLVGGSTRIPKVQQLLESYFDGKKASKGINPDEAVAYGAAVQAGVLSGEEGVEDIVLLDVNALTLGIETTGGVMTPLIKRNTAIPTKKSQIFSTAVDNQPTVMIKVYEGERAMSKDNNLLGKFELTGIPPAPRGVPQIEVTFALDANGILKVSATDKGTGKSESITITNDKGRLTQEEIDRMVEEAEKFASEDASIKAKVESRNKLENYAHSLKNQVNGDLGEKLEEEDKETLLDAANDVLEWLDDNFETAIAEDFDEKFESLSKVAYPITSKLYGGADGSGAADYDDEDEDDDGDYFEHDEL

SMILES | proteinase K protection, SDS-PAGE (Kar2p) | Kd (Lhs1p)
Nc1ncnc2c1ncn2[C@@H]1O[C@H](COP(=O)(O)OP(=O)(O)O)[C@@H](O)[C@H]1O [ADP] | ADP binding protects a ∼44-kDa NBD fragment | –
Nc1ncnc2c1ncn2[C@@H]1O[C@H](COP(=O)(O)OP(=O)(O)OP(=O)(O)O)[C@@H](O)[C@H]1O [ATP] | – | 13.6 ± 0.5 µM
